Reference: EP4691468A1, “PHARMACEUTICAL COMPOSITION FOR TREATING INFLAMMATORY BOWEL DISEASE” (EA Pharma Co., Ltd., priority 2023, dated 2024)

Assay: Phase 1 single-dose administration study: plasma concentration of Compound (2) by LC/MS/MS
Settings: for Average Plasma Concentrations of Compound (2) after Single-Dose Administration: oral; for Judgment Trough Value / Plasma Concentration Trough Value: Measured Value, Single, Once
Protocol: A phase 1 clinical trial was conducted to evaluate the safety, tolerability, and pharmacokinetics of Compound (1) when orally administered to healthy adult males.
This clinical trial was a single-center, randomized, double-blind, placebo-controlled, single and multiple ascending dose study with the primary objective of evaluating the safety and tolerability of Compound (1) when orally administered to healthy adult males.
The subjects in each cohort consisted of 8 people, of which 6 were assigned to Compound (1) and 2 were assigned to placebo, and they were administered the drug.
The plasma concentration of Compound (2) was measured using a validated measurement method. Specifically, plasma was separated from collected blood and processed, and then the plasma concentration was measured by an LC/MS/MS apparatus.
Compound (1) was orally administered once to 6 healthy adult males per dose and dosage form at doses of 6, 20, 100, 200, and 400 mg in the form of hard capsules (CAP), liquid self-emulsifying drug delivery system (L-SEDDS), or soft capsule self-emulsifying drug delivery system (C-SEDDS).

## Cc1cc(=O)n(-c2ccc(C[C@H](NC(=O)c3cc(F)c(NS(=O)(=O)c4ccc(NC(=O)C(C)(C)C)cc4)cc3F)C(=O)O)cn2)c(=O)n1C [Compound (2)]
Compound (1) 100 mg CAP, Time 1 h
  Average Plasma Concentrations of Compound (2) after Single-Dose Administration: 0.556 ng/mL
Compound (1) 100 mg CAP, Time 1.5 h
  Average Plasma Concentrations of Compound (2) after Single-Dose Administration: 1.274 ng/mL
Compound (1) 100 mg CAP, Time 2 h
  Average Plasma Concentrations of Compound (2) after Single-Dose Administration: 1.864 ng/mL
Compound (1) 100 mg CAP, Time 2.5 h
  Average Plasma Concentrations of Compound (2) after Single-Dose Administration: 2.343 ng/mL
Compound (1) 100 mg CAP, Time 3 h
  Average Plasma Concentrations of Compound (2) after Single-Dose Administration: 2.246 ng/mL
Compound (1) 100 mg CAP, Time 4 h
  Average Plasma Concentrations of Compound (2) after Single-Dose Administration: 2.465 ng/mL
Compound (1) 100 mg CAP, Time 5 h
  Average Plasma Concentrations of Compound (2) after Single-Dose Administration: 2.331 ng/mL
Compound (1) 100 mg CAP, Time 6 h
  Average Plasma Concentrations of Compound (2) after Single-Dose Administration: 1.906 ng/mL
Compound (1) 100 mg CAP, Time 7 h
  Average Plasma Concentrations of Compound (2) after Single-Dose Administration: 1.498 ng/mL
Compound (1) 100 mg CAP, Time 8 h
  Average Plasma Concentrations of Compound (2) after Single-Dose Administration: 1.357 ng/mL
Compound (1) 100 mg CAP, Time 12 h
  Average Plasma Concentrations of Compound (2) after Single-Dose Administration: 1.276 ng/mL
Compound (1) 100 mg CAP, Time 15 h
  Average Plasma Concentrations of Compound (2) after Single-Dose Administration: 1.135 ng/mL
Compound (1) 100 mg CAP, Time 21 h
  Average Plasma Concentrations of Compound (2) after Single-Dose Administration: 1.046 ng/mL
Compound (1) 100 mg CAP, Time 24 h
  Average Plasma Concentrations of Compound (2) after Single-Dose Administration: 1.030 ng/mL
Compound (1) 200 mg C-SEDDS, Time 0.5 h
  Average Plasma Concentrations of Compound (2) after Single-Dose Administration: Below quantitation limit
Compound (1) 200 mg C-SEDDS, Time 1 h
  Average Plasma Concentrations of Compound (2) after Single-Dose Administration: Below quantitation limit
Compound (1) 200 mg C-SEDDS, Time 1.5 h
  Average Plasma Concentrations of Compound (2) after Single-Dose Administration: 2.14 ng/mL
Compound (1) 200 mg C-SEDDS, Time 2 h
  Average Plasma Concentrations of Compound (2) after Single-Dose Administration: 6.68 ng/mL
Compound (1) 200 mg C-SEDDS, Time 2.5 h
  Average Plasma Concentrations of Compound (2) after Single-Dose Administration: 10.5 ng/mL
Compound (1) 200 mg C-SEDDS, Time 3 h
  Average Plasma Concentrations of Compound (2) after Single-Dose Administration: 13.4 ng/mL
Compound (1) 200 mg C-SEDDS, Time 4 h
  Average Plasma Concentrations of Compound (2) after Single-Dose Administration: 14.2 ng/mL
Compound (1) 200 mg C-SEDDS, Time 5 h
  Average Plasma Concentrations of Compound (2) after Single-Dose Administration: 10.4 ng/mL
Compound (1) 200 mg C-SEDDS, Time 6 h
  Average Plasma Concentrations of Compound (2) after Single-Dose Administration: 5.91 ng/mL
Compound (1) 200 mg C-SEDDS, Time 7 h
  Average Plasma Concentrations of Compound (2) after Single-Dose Administration: 3.46 ng/mL
Compound (1) 200 mg C-SEDDS, Time 8 h
  Average Plasma Concentrations of Compound (2) after Single-Dose Administration: 3.33 ng/mL
Compound (1) 200 mg C-SEDDS, Time 12 h
  Average Plasma Concentrations of Compound (2) after Single-Dose Administration: 2.48 ng/mL
Compound (1) 200 mg C-SEDDS, Time 15 h
  Average Plasma Concentrations of Compound (2) after Single-Dose Administration: 2.14 ng/mL
Compound (1) 200 mg C-SEDDS, Time 21 h
  Average Plasma Concentrations of Compound (2) after Single-Dose Administration: 1.85 ng/mL
Compound (1) 200 mg C-SEDDS, Time 24 h
  Average Plasma Concentrations of Compound (2) after Single-Dose Administration: 1.69 ng/mL
Compound (1) 200 mg L-SEDDS, Time 0.5 h
  Average Plasma Concentrations of Compound (2) after Single-Dose Administration: 4.28 ng/mL
Compound (1) 200 mg L-SEDDS, Time 1 h
  Average Plasma Concentrations of Compound (2) after Single-Dose Administration: 11.5 ng/mL
Compound (1) 200 mg L-SEDDS, Time 1.5 h
  Average Plasma Concentrations of Compound (2) after Single-Dose Administration: 14.2 ng/mL
Compound (1) 200 mg L-SEDDS, Time 2 h
  Average Plasma Concentrations of Compound (2) after Single-Dose Administration: 13.5 ng/mL
Compound (1) 200 mg L-SEDDS, Time 2.5 h
  Average Plasma Concentrations of Compound (2) after Single-Dose Administration: 13.0 ng/mL
Compound (1) 200 mg L-SEDDS, Time 3 h
  Average Plasma Concentrations of Compound (2) after Single-Dose Administration: 10.9 ng/mL
Compound (1) 200 mg L-SEDDS, Time 4 h
  Average Plasma Concentrations of Compound (2) after Single-Dose Administration: 9.50 ng/mL
Compound (1) 200 mg L-SEDDS, Time 5 h
  Average Plasma Concentrations of Compound (2) after Single-Dose Administration: 6.46 ng/mL
Compound (1) 200 mg L-SEDDS, Time 6 h
  Average Plasma Concentrations of Compound (2) after Single-Dose Administration: 3.97 ng/mL
Compound (1) 200 mg L-SEDDS, Time 7 h
  Average Plasma Concentrations of Compound (2) after Single-Dose Administration: 2.89 ng/mL
Compound (1) 200 mg L-SEDDS, Time 8 h
  Average Plasma Concentrations of Compound (2) after Single-Dose Administration: 2.54 ng/mL
Compound (1) 200 mg L-SEDDS, Time 12 h
  Average Plasma Concentrations of Compound (2) after Single-Dose Administration: 2.07 ng/mL
Compound (1) 200 mg L-SEDDS, Time 15 h
  Average Plasma Concentrations of Compound (2) after Single-Dose Administration: 2.00 ng/mL
Compound (1) 200 mg L-SEDDS, Time 21 h
  Average Plasma Concentrations of Compound (2) after Single-Dose Administration: 2.11 ng/mL
Compound (1) 200 mg L-SEDDS, Time 24 h
  Average Plasma Concentrations of Compound (2) after Single-Dose Administration: 2.25 ng/mL
Compound (1) 400 mg L-SEDDS, Time 0.5 h
  Average Plasma Concentrations of Compound (2) after Single-Dose Administration: 8.84 ng/mL
Compound (1) 400 mg L-SEDDS, Time 1 h
  Average Plasma Concentrations of Compound (2) after Single-Dose Administration: 36.7 ng/mL
Compound (1) 400 mg L-SEDDS, Time 1.5 h
  Average Plasma Concentrations of Compound (2) after Single-Dose Administration: 45.6 ng/mL
Compound (1) 400 mg L-SEDDS, Time 2 h
  Average Plasma Concentrations of Compound (2) after Single-Dose Administration: 45.0 ng/mL
Compound (1) 400 mg L-SEDDS, Time 2.5 h
  Average Plasma Concentrations of Compound (2) after Single-Dose Administration: 40.1 ng/mL
Compound (1) 400 mg L-SEDDS, Time 3 h
  Average Plasma Concentrations of Compound (2) after Single-Dose Administration: 31.8 ng/mL
Compound (1) 400 mg L-SEDDS, Time 4 h
  Average Plasma Concentrations of Compound (2) after Single-Dose Administration: 22.6 ng/mL
Compound (1) 400 mg L-SEDDS, Time 5 h
  Average Plasma Concentrations of Compound (2) after Single-Dose Administration: 14.3 ng/mL
Compound (1) 400 mg L-SEDDS, Time 6 h
  Average Plasma Concentrations of Compound (2) after Single-Dose Administration: 8.41 ng/mL
Compound (1) 400 mg L-SEDDS, Time 7 h
  Average Plasma Concentrations of Compound (2) after Single-Dose Administration: 6.54 ng/mL
Compound (1) 400 mg L-SEDDS, Time 8 h
  Average Plasma Concentrations of Compound (2) after Single-Dose Administration: 4.76 ng/mL
Compound (1) 400 mg L-SEDDS, Time 12 h
  Average Plasma Concentrations of Compound (2) after Single-Dose Administration: 4.34 ng/mL
Compound (1) 400 mg L-SEDDS, Time 15 h
  Average Plasma Concentrations of Compound (2) after Single-Dose Administration: 3.90 ng/mL
Compound (1) 400 mg L-SEDDS, Time 21 h
  Average Plasma Concentrations of Compound (2) after Single-Dose Administration: 3.98 ng/mL
Compound (1) 400 mg L-SEDDS, Time 24 h
  Average Plasma Concentrations of Compound (2) after Single-Dose Administration: 3.79 ng/mL
6/CAP
  Judgment Trough Value: C (less than IC50 (1.9 ng/mL))
20/CAP
  Judgment Trough Value: C (less than IC50 (1.9 ng/mL))
  Plasma Concentration Trough Value: 0.25 ng/mL
100/CAP
  Judgment Trough Value: C (less than IC50 (1.9 ng/mL))
  Plasma Concentration Trough Value: 1.03 ng/mL
200/C-SEDDS
  Judgment Trough Value: C (less than IC50 (1.9 ng/mL))
  Plasma Concentration Trough Value: 1.69 ng/mL
200/L-SEDDS
  Judgment Trough Value: B (IC50 (1.9 ng/mL) or higher and less than IC90 (6.9 ng/mL))
  Plasma Concentration Trough Value: 2.25 ng/mL
400/L-SEDDS
  Judgment Trough Value: B (IC50 (1.9 ng/mL) or higher and less than IC90 (6.9 ng/mL))
  Plasma Concentration Trough Value: 3.79 ng/mL
single-dose administration, 200 mg
  trough value resulting from C-SEDDS relative to the trough value resulting from L-SEDDS: about 75%
